Values of other authors as cited in patent publication US20110086399A1, “RECOVERY OF STILBENOIDS” (FLUXOME SCIENCES A/S, priority 2008, published 2011).

Settings: stated for comparison with the concentrations in the cell broth

aqueous solubility: < 30 µg/mL
Structure (SMILES): Oc1cc(O)cc(/C=C/c2ccccc2)c1 [pinosylvin]
